According to patent US20240043404A1 (AbbVie Inc., priority 2009, published 2024):
Read-outs that look alike come from different tables or passages of the source.

Tests used:
[1] = test system: RS4;11 cells; conditions: RS4;11 acute lymphoblastic leukemia cell line; cited from earlier work
[2] = target: Bcl-2 (Homo sapiens (Human), UniProt P10415); assay: Time Resolved-Fluorescence Resonance Energy Transfer (TR-FRET) Bcl-2 binding assay
Description: The samples are then mixed on a shaker for 1 minute and incubated for an additional 3 hours at room temperature. For each assay, the probe/antibody and protein/probe/antibody were included on each assay plate as negative and positive controls, respectively.
The samples were then mixed on a shaker for 1 minute and incubated for an additional 3 hours at room temperature. For each assay, the probe/antibody and protein/probe/antibody were included on each assay plate as negative and positive controls, respectively.

[3] = test system: RS4;11 cells; assay: RS4;11 cell viability assay (CellTiter Glo); type: cell-based, human; conditions: Homo sapiens, read-out: RS4;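 note: acute lymphoblastic leukemia line RS4,11, EC50 derived from percentage of viable cells after treatment relative to untreated controls, cell killing taken as a measure of Bcl-2 inhibition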
Description: The acute lymphoblastic leukemia (ALL) cell line RS4;11 was used as the primary human cell line to assess the cellular activity of Bcl-2 selective agents in vitro and their efficacy in vivo.
Cell cytotoxicity EC50 values were assessed using CellTiter Glo (Promega) according to the manufacturer's recommendations. The EC50 values were determined as a percentage of viable cells following treatment compared to the untreated control cells.

[4] = Table 5, direct comparison Z=N with corresponding analogs Z=C, read-out: Bcl-2 FRET ki
[5] = RS4-11, 48 h, 50,000 cells per well, 10% human serum, 48 hours, 11 EC50 Values
[6] = RS4-11, Table 5, direct comparison Z=N with corresponding analogs Z=C, 11 EC50
[7] = GST-Bcl-2 1 nM, F-Bak peptide probe 100 nM, Tb-anti-GST 1 nM, < means below limit of detection, read-out: TR-FRET Bcl-2 Binding Ki

Chain of Bcl-2 (P10415 whole entry): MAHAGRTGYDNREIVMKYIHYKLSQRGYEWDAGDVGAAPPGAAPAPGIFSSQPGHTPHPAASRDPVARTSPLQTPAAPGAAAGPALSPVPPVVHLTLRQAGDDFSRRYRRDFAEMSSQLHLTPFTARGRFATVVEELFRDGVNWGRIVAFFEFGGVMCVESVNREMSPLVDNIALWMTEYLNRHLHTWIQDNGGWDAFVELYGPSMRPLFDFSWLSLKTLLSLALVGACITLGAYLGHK

CN(C)CC[C@H](CSc1ccccc1)Nc1ccc(S(=O)(=O)NC(=O)c2ccc(N3CCN(Cc4ccccc4-c4ccc(Cl)cc4)CC3)cc2)cc1[N+](=O)[O-] [ABT-737, N-(4-(4-((4′-chloro(1,1′-biphenyl)-2-yl)methyl)piperazin-1-yl)benzoyl)-4-(((1R)-3-(dimethylamino)-1-((phenylsulfanyl)methyl)propyl)amino)-3-nitrobenzenesulfonamide]
sensitivity of RS4;11 cells to inhibitor [1]: sensitive

CC1(C)CCC(CN2CCN(c3ccc(C(=O)NS(=O)(=O)c4ccc(N[C@H]5CC[C@H](N6CCOCC6)CC5)c([N+](=O)[O-])c4)c(Oc4cnc5[nH]ccc5c4)c3)CC2)=C(c2ccc(Cl)cc2)C1 [Example 9, Trans-4-(4-{[2-(4-chlorophenyl)-4,4-dimethylcyclohex-1-en-1-yl]methyl}piperazin-1-yl)-N-({4-[(4-morpholin-4-ylcyclohexyl)amino]-3-nitrophenyl}sulfonyl)-2-(1H-pyrrolo[2,3-b]pyridin-5-yloxy)benzamide]
Ki [2, 4]: < 0.01 nM | EC50 [3, 5]: 14.8 nM | EC50 [3, 6]: 15 nM

COCCNc1ccc(S(=O)(=O)NC(=O)c2ccc(N3CCN(CC4=C(c5ccc(Cl)cc5)CC(C)(C)CC4)CC3)cc2Oc2cnc3[nH]ccc3c2)cc1[N+](=O)[O-] [Example 10, 4-(4-{[2-(4-chlorophenyl)-4,4-dimethylcyclohex-1-en-1-yl]methyl}piperazin-1-yl)-N-({4-[(2-methoxyethyl)amino]-3-nitrophenyl}sulfonyl)-2-(1H-pyrrolo[2,3-b]pyridin-5-yloxy)benzamide]
Ki [2, 4]: < 0.01 nM | EC50 [3, 5]: 52 nM | EC50 [3, 6]: 52 nM

CC1(C)CCC(CN2CCN(c3ccc(C(=O)NS(=O)(=O)c4ccc(OCC5COCCO5)c([N+](=O)[O-])c4)c(Oc4cnc5[nH]ccc5c4)c3)CC2)=C(c2ccc(Cl)cc2)C1 (centres unmarked) [Example 12, 4-(4-{[2-(4-chlorophenyl)-4,4-dimethylcyclohex-1-en-1-yl]methyl}piperazin-1-yl)-N-{[4-(1,4-dioxan-2-ylmethoxy)-3-nitrophenyl]sulfonyl}-2-(1H-pyrrolo[2,3-b]pyridin-5-yloxy)benzamide]
Ki [2, 4]: < 0.01 nM | EC50 [3, 5]: 34.7 nM | EC50 [3, 6]: 35 nM

CC1(C)CCC(CN2CCN(c3ccc(C(=O)NS(=O)(=O)c4ccc(NC[C@H]5CCCOC5)c([N+](=O)[O-])c4)c(Oc4cnc5[nH]ccc5c4)c3)CC2)=C(c2ccc(Cl)cc2)C1 [Example 13, 4-(4-{[2-(4-chlorophenyl)-4,4-dimethylcyclohex-1-en-1-yl]methyl}piperazin-1-yl)-N-[(3-nitro-4-{[(3R)-tetrahydro-2H-pyran-3-ylmethyl]amino}phenyl)sulfonyl]-2-(1H-pyrrolo[2,3-b]pyridin-5-yloxy)benzamide]
Ki [2, 4]: < 0.01 nM | EC50 [3, 5]: 23.2 nM | EC50 [3, 6]: 23 nM

CC1(C)CC(c2ccc(Cl)cc2)=C(CN2CCN(c3ccc(C(=O)NS(=O)(=O)c4ccc(NCC5CCOCC5)c([N+](=O)[O-])c4)c(Oc4cnc5[nH]ccc5c4)c3)CC2)CO1 [Example 15, 4-(4-{[4-(4-chlorophenyl)-6,6-dimethyl-5,6-dihydro-2H-pyran-3-yl]methyl}piperazin-1-yl)-N-({3-nitro-4-[(tetrahydro-2H-pyran-4-ylmethyl)amino]phenyl}sulfonyl)-2-(1H-pyrrolo[2,3-b]pyridin-5-yloxy)benzamide]
Ki [2, 7]: < 0.01 nM | Ki [2, 4]: < 0.01 nM | EC50 [3, 5]: 12.8 nM | EC50 [3, 6]: 13 nM

CC1(C)CCC(CN2CCN(c3ccc(C(=O)NS(=O)(=O)c4ccc(NC5CCN(C6CCOCC6)CC5)c([N+](=O)[O-])c4)c(Oc4ccc5[nH]ccc5c4)c3)CC2)=C(c2ccc(Cl)cc2)C1 [Example 89, 4-(4-{[2-(4-chlorophenyl)-4,4-dimethylcyclohex-1-en-1-yl]methyl}piperazin-1-yl)-2-(1H-indol-5-yloxy)-N-({3-nitro-4-[(1-tetrahydro-2H-pyran-4-ylpiperidin-4-yl)amino]phenyl}sulfonyl)benzamide]
Ki ([2]; read-out: Bcl-2 FRET ki): 0.074 nM | EC50 [3, 5]: 64.5 nM | EC50 [3, 6]: 64 nM

CC1(C)CCC(CN2CCN(c3ccc(C(=O)NS(=O)(=O)c4ccc(OC[C@H]5CC[C@H](O)CC5)c([N+](=O)[O-])c4)c(Oc4cnc5[nH]ccc5c4)c3)CC2)=C(c2ccc(Cl)cc2)C1 [Example 120, 2-(1H-pyrrolo[2,3-b]pyridin-5-yloxy)-4-(4-((2-(4-chlorophenyl)-4,4-dimethylcyclohex-1-enyl)methyl)piperazin-1-yl)-N-(4-((trans-4-hydroxycyclohexyl)methoxy)-3-nitrophenylsulfonyl)benzamide]
Ki [2, 7]: < 0.01 nM | EC50 [3, 5]: 1.47 nM

CC1(C)CCC(CN2CCN(c3ccc(C(=O)NS(=O)(=O)c4ccc(OC[C@H]5CCN(C6COC6)C5)c([N+](=O)[O-])c4)c(Oc4cnc5[nH]ccc5c4)c3)CC2)=C(c2ccc(Cl)cc2)C1 [Example 184, 4-(4-{[2-(4-chlorophenyl)-4,4-dimethylcyclohex-1-en-1-yl]methyl}piperazin-1-yl)-N-[(3-nitro-4-{[(3S)-1-oxetan-3-ylpyrrolidin-3-yl]methoxy}phenyl)sulfonyl]-2-(1H-pyrrolo[2,3-b]pyridin-5-yloxy)benzamide]
Ki [2, 7]: < 0.01 nM | EC50 [3, 5]: 23.2 nM

CC1(C)CCC(CN2CCN(c3ccc(C(=O)NS(=O)(=O)c4ccc(OCC5CCN(C6COC6)CC5)c([N+](=O)[O-])c4)c(Oc4cnc5[nH]ccc5c4)c3)CC2)=C(c2ccc(Cl)cc2)C1 [Example 191, 4-(4-{[2-(4-chlorophenyl)-4,4-dimethylcyclohex-1-en-1-yl]methyl}piperazin-1-yl)-N-({3-nitro-4-[(1-oxetan-3-ylpiperidin-4-yl)methoxy]phenyl}sulfonyl)-2-(1H-pyrrolo[2,3-b]pyridin-5-yloxy)benzamide]
Ki [2, 7]: < 0.01 nM | EC50 [3, 5]: 6.91 nM
